Reference: patent US20260226084A1, “DUAL RAF AND TUBULIN INHIBITORS AND METHODS OF USE THEREOF” (Deciphera Pharmaceuticals, LLC, priority 2023, published 2026)
Where two headings read alike, the source gives them in different places.

Legend:
[1] = molecular target: T1, B-Raf kinase (SEQ ID NO: 1) (Homo sapiens, UniProt P15056); experiment: Biochemical Assay for B-Raf (coupled pyruvate kinase/lactate dehydrogenase assay); conditions: 1 mM ATP; read-out: BRAF (inhibition of biochemical activity, IC50)
T1 construct: GST (N); purchased Sigma
T1 sequence (P15056 416-766): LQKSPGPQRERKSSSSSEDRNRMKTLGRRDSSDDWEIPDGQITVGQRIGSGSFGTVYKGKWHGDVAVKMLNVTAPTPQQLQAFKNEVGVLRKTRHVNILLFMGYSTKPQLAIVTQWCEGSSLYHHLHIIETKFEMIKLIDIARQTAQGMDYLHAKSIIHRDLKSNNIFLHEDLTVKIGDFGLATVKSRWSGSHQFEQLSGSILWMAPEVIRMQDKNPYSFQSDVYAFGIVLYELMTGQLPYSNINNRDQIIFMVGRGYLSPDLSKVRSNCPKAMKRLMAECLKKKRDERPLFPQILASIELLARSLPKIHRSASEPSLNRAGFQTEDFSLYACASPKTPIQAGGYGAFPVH

[2] = molecular target: T2, C-Raf kinase (SEQ ID NO: 2) (Homo sapiens, UniProt P04049, Y340D/Y341D); experiment: Biochemical Assay for C-Raf (coupled pyruvate kinase/lactate dehydrogenase assay); conditions: 1 mM ATP; read-out: CRAF (inhibition of biochemical activity, IC50)
T2 construct: C-Raf residues 306-end; Y340D, Y341D with; GST (N); purchased Sigma
T2 sequence (P04049 307-648 Y340D/Y341D): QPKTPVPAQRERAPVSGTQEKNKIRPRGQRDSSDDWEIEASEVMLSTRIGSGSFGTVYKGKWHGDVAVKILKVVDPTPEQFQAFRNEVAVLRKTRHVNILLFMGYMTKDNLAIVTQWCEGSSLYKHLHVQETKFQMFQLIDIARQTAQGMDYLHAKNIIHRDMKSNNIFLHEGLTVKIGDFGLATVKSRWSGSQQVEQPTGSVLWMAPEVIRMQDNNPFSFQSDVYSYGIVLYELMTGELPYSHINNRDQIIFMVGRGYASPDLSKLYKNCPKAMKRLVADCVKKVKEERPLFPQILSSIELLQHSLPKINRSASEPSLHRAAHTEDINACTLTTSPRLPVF

MiaPaca-2 cells = experiment: MiaPaca-2 Cell Proliferation Assay; format: cell-based; conditions: Table 2, read-out: Inhibition of cell proliferation in MiaPaca-2 (IC50 class)
Summary of the method: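 Viability was read as resazurin fluorescence (540 nm excitation, 600 nm emission) after 5–6 h with dye. Compounds were tested as serial dilutions in triplicate, with IC50 derived from the dose–response.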

HCT-116 cells = experiment: HCT-116 Cell Proliferation Assay; format: cell-based; conditions: Table 2, read-out: Inhibition of cell proliferation in HCT-116 (IC50 class)
Summary of the method: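 IC50 values come from resazurin fluorescence (540 nm excitation, 600 nm emission) added for 4 to 5 h after compound treatment. Treatment: serially diluted compound in triplicate on 375 HCT-116 cells per well in complete McCoy's 5A/10% FBS, 67 to 72 hours, 37 °C, 5% CO2.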

HPAF-II cells = experiment: HPAF-II Cell Proliferation Assay; format: cell-based; conditions: HPAF-II cells, Table 2, read-out: Inhibition of cell proliferation in HPAF-II (IC50 class)
Summary of the method: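 Viability read-out was resazurin fluorescence (540 nm excitation, 600 nm emission), developed 18–24 h after a 115–120 h compound exposure of 750 HPAF-II cells per well in MEM/10% FBS at 37 °C. Compound was tested as a serial dilution in triplicate, and IC50 values were calculated.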

Pa16c cells = experiment: Pa16c Cell Proliferation Assay; format: cell-based; conditions: Table 2, read-out: Inhibition of cell proliferation in Pa16c (IC50 class)
Summary of the method: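 Proliferation read-out: resazurin fluorescence (540 nm excitation, 600 nm emission) after an extra 18 to 24 h. Before that, compound dilution series (triplicate) stayed on 750 Pa16c cells/well in complete DMEM/10% FBS for 67 to 72 h at 37° C. IC50 values derived from the curves.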

[3] = Homo sapiens, MIA PaCa-2, MiaPaca-2 cells
[4] = Homo sapiens, HCT-116, HCT-116 cells

SMILES	IC50 [1] [nM]	IC50 [2] [nM]	IC50 (MiaPaca-2 cells; [3]) [nM]	IC50 (HCT-116 cells; [4]) [nM]	IC50 (HPAF-II cells; Homo sapiens, HPAF-II) [nM]	IC50 (Pa16c cells) [nM]	IC50 (MiaPaca-2 cells; MiaPaca-2 cells) [nM]	IC50 (HCT-116 cells; HCT-116 cells) [nM]	IC50 (HPAF-II cells) [nM]
Cc1ccc(NC(=O)c2cc(C(F)(F)F)cnn2)cc1-c1cncc(-c2ccnc(NC(=O)C3CC3)c2)c1 [Example 39]	< 100	< 100	500 to 1000	100 to 500	500 to 1000	100 to 500	–	–	–
Cc1ccc(NC(=O)c2ccc(C(F)(F)F)nc2)cc1-c1cncc(-c2ccnc(NC(=O)C3CC3)c2)c1 [Example 72]	< 100	< 100	500 to 1000	100 to 500	500 to 1000	1000 to 10000	–	–	–
Cc1ccc(NC(=O)c2cc(C3CC3)cnn2)cc1-c1nc(NCCO)cc(-c2ccnc(NC(=O)C3CC3)c2)n1 [Example 102]	< 100	< 100	1000 to 10000	500 to 1000	1000 to 10000	1000 to 10000	–	–	–
Cc1ccc(NC(=O)c2cc(C(F)(F)F)cnn2)cc1-c1cc(N[C@H](C)CO)nc(-c2cn[nH]c2C)c1 [Example 120]	< 100	< 100	< 100	100 to 500	100 to 500	100 to 500	–	–	–
Cc1ccc(NC(=O)c2cc(C3CC3)cnn2)cc1-c1cc(-c2ccnc(NC(=O)C3CC3)c2)nc(NCCO)n1 [Example 15]	< 100	< 100	100 to 500	< 100	1000 to 10000	1000 to 10000	–	–	–
COCC(=O)Nc1cc(-c2cc(-c3cc(NC(=O)c4cc(C(F)(F)F)cnn4)ccc3C)ccn2)ccn1 [Example 48]	< 100	< 100	< 100	< 100	100 to 500	< 100	–	–	–
Cc1ccc(NC(=O)c2cnc(C(F)(F)F)nc2)cc1-c1ccnc(-c2cn[nH]c2)c1 [Example 126]	1000 to 10000	1000 to 10000	< 100	< 100	100 to 500	100 to 500	–	–	–
Cc1ccc(NC(=O)c2ccc(C(F)(F)F)nc2)cc1-c1cncc(-c2cc(NC(=O)C3CC3)ncn2)c1 [Example 75]	< 100	< 100	1000 to 10000	1000 to 10000	1000 to 10000	1000 to 10000	–	–	–
Cc1ccc(NC(=O)c2cc(C(F)(F)F)cnn2)cc1-c1ccnc(-c2ccnc(NC(=O)C3CNCC3(F)F)c2)c1 (stereo not drawn) [Example 92, N-[3-[2-[2-[(4,4-difluoropyrrolidine-3-carbonyl)amino]-4-pyridyl]-4-pyridyl]-4-methyl-phenyl]-5-(trifluoromethyl)pyridazine-3-carboxamide]	< 100	< 100	100 to 500	100 to 500	500 to 1000	500 to 1000	–	–	–
Cc1ccc(NC(=O)c2cc(OC(F)F)cnn2)cc1-c1ccnc(-c2ccnc(NC(=O)C3CC3)c2)c1 [Example 134]	< 100	< 100	500 to 1000	100 to 500	1000 to 10000	100 to 500	–	–	–
Cc1ccc(NC(=O)c2ccc(C(F)F)nn2)cc1-c1ccnc(-c2ccnc(NC(=O)C3CC3)c2)c1 [Example 58]	500 to 1000	100 to 500	100 to 500	< 100	100 to 500	1000 to 10000	–	–	–
Cc1ccc(NC(=O)c2cc(C)c(C)nn2)cc1-c1ccnc(-c2ccnc(NC(=O)C3CC3)c2)c1 [Example 97]	< 100	< 100	1000 to 10000	1000 to 10000	1000 to 10000	1000 to 10000	–	–	–
Cc1ccc(NC(=O)c2cc(C(C)(F)F)cnn2)cc1-c1cncc(-c2cc(NC(=O)C3CC3)ncn2)c1 [Example 63]	< 100	< 100	100 to 500	< 100	100 to 500	500 to 1000	–	–	–
CNCC(=O)Nc1cc(-c2cc(-c3cc(NC(=O)c4cc(C(F)(F)F)cnn4)ccc3C)ccn2)ccn1 [Example 88]	< 100	< 100	100 to 500	100 to 500	100 to 500	1000 to 10000	–	–	–
Cc1ccc(NC(=O)c2cc(C(F)(F)F)cnn2)cc1-c1ccnc(-c2ccnc(NC(=O)CN(C)C)c2)c1 [Example 52]	< 100	< 100	100 to 500	100 to 500	100 to 500	500 to 1000	–	–	–
CC(=N)Nc1cc(-c2cc(-c3cc(NC(=O)c4cc(C(F)(F)F)cnn4)ccc3C)ccn2)ccn1 [Example 91]	100 to 500	100 to 500	500 to 1000	500 to 1000	1000 to 10000	1000 to 10000	–	–	–
CNCC(=O)Nc1cc(-c2cc(-c3cc(NC(=O)c4cc(C5CC5)cnn4)ccc3C)ccn2)ccn1 [Example 107]	< 100	< 100	100 to 500	100 to 500	100 to 500	100 to 500	–	–	–
Cc1ccc(NC(=O)c2cc(C(F)(F)F)cnn2)cc1-c1ccnc(-c2ccnc(NC(=O)C3CCN(C)C3)c2)c1 (stereo not drawn) [Example 51]	< 100	< 100	100 to 500	100 to 500	100 to 500	500 to 1000	–	–	–
Cc1ccc(NC(=O)c2cc(C(F)(F)F)cnn2)cc1-c1ccnc(-c2ccnc(NC(=O)CC3(C)CC3)c2)c1 [Example 90]	100 to 500	100 to 500	100 to 500	100 to 500	100 to 500	1000 to 10000	–	–	–
Cc1ccc(NC(=O)c2cc(Cl)cnn2)cc1-c1ccnc(-c2ccnc(NC(=O)C3CC3)c2)c1 [Example 40]	< 100	< 100	500 to 1000	100 to 500	500 to 1000	500 to 1000	–	–	–
CC(=O)Nc1cc(-c2cncc(-c3cc(NC(=O)c4cc(C(F)(F)F)cnn4)ccc3C)c2)ncn1 [Example 71]	< 100	< 100	–	–	–	1000 to 10000	500 to 1000	100 to 500	500 to 1000
Cc1ccc(NC(=O)c2cc(C(F)(F)F)cnn2)cc1-c1ccnc(-c2ccnc(NC(=O)C3(C)CC3)c2)c1 [Example 41]	100 to 500	< 100	100 to 500	100 to 500	1000 to 10000	< 100	–	–	–
Cc1ccc(NC(=N)c2cc(C3CC3)cnn2)cc1-c1ccnc(-c2ccnc(NC(=O)C3CC3)c2)c1 [Example 87]	< 100	< 100	1000 to 10000	1000 to 10000	1000 to 10000	1000 to 10000	–	–	–
CC(=O)Nc1cc(-c2cc(-c3cc(NC(=O)c4ccc(C(F)(F)F)nn4)ccc3C)ccn2)ccn1 [Example 13]	500 to 1000	100 to 500	< 100	< 100	< 100	< 100	–	–	–
Cc1ccc(NC(=O)c2cc(C(F)(F)F)cnn2)cc1-c1ccnc(-c2ccnc(NCC(F)(F)F)c2)c1 [Example 53]	500 to 1000	500 to 1000	100 to 500	100 to 500	100 to 500	1000 to 10000	–	–	–
Cc1ccc(NC(=O)c2cc(C3CC3)cnn2)cc1-c1ccnc(-c2ccoc2)c1 [Example 147]	100 to 500	100 to 500	100 to 500	100 to 500	100 to 500	100 to 500	–	–	–
CC(=O)Nc1cc(-c2cc(-c3cc(NC(=O)c4ccc(C(F)F)nc4)c(F)cc3C)ccn2)ccn1 [Example 20]	< 100	< 100	< 100	100 to 500	< 100	100 to 500	–	–	–
COC(=O)Nc1cc(-c2ccnc(-c3cc(NC(=O)c4ccc(C(F)(F)F)nc4)ccc3C)n2)ccn1 [Example 6]	< 100	< 100	1000 to 10000	500 to 1000	1000 to 10000	1000 to 10000	–	–	–
Cc1ccc(NC(=O)c2cc(C(F)(F)F)cnn2)cc1-c1cncc(-c2cc(NC=O)ncn2)c1 [Example 124]	< 100	< 100	100 to 500	500 to 1000	500 to 1000	500 to 1000	–	–	–
CCNc1cc(-c2cc(-c3cc(NC(=O)c4cc(C(F)(F)F)cnn4)ccc3C)ccn2)ccn1 [Example 95]	100 to 500	100 to 500	100 to 500	100 to 500	100 to 500	500 to 1000	–	–	–
